Results taken from patent US20100298557A1, “PYRAZOLOPYRIMIDINE COMPOUND” (Taisho Pharmaceutical Co., Ltd, priority 2006, published 2010).

Key:
[1] = tested on: Human mast cell line LAD cells; test: Degranulation test using human mast cell line LAD cells; assay type: cell-based; conditions: IgE-sensitized LAD cells, anti-human IgE stimulation, β-hexosaminidase release, read-out: degranulation inhibitory activity IC50
Protocol: Human mast cell line LAD cells were sensitized with human IgE (Cosmo Bio; final concentration 1 μg/ml) overnight. The cells were harvested, and then washed with PBS (Invitrogen) and washed again with Tyrode's buffer solution (Sigma) containing 0.1% BSA (Sigma). The cells were seeded into a 96-well plate at 10^5 cells/well and then the compound (0.1% final concentration DMSO solution) was added, followed by incubation at 37° C. for 15 minutes. Rabbit anti-human IgE (Dako Japan; final concentration 10 μg/ml) or control Ig (Dako Japan; final concentration 10 μg/ml) was added, followed by incubation at 37° C. for 30 minutes. The supernatant was recovered and p-nitrophenyl-2-acetamido-2-deoxy-β-D-glucopyranoside (Sigma; final concentration 4 mM), a substrate of β-hexosaminidase which is an index of degranulation, was added, followed by incubation at 37° C. for 45 minutes. Glycine (Wako; final concentration 0.2 M, pH 10.4) was added and the reaction was terminated. Then, the absorbance at 405 nm was measured.
The inhibition rate (%) was calculated as (anti-IgE antibody degranulation rate—compound-added group degranulation rate)/(anti-IgE antibody degranulation rate—control antibody degranulation rate)×100. The IC50 value was calculated from the inhibition rate at each concentration and used as an index of inhibitory activity.

Syk = target: T1, Syk (Homo sapiens, UniProt P43405); test: Syk inhibition test; assay type: biochemical; conditions: poly(L-glu-L-tyr) substrate, ATP 5 μM, [γ-33P]ATP, 30 minutes room temperature; read-out: Syk inhibitory activity IC50
T1 construct: purchased Wako Pure Chemical Industries
Protocol: 10 ng/10 μl/well of a Syk (Wako Pure Chemical Industries) solution, 15 μl of a poly(L-glu-L-tyr) substrate peptide solution (Sigma, final concentration 5 μM), 20 μl of an ATP mixture (ATP: Oriental Yeast, final concentration 5 μM, [γ-33P]ATP: GE Healthcare Biosciences, 0.1 μCi/well) and 5 μl of a test substance solution were added to a 96-well Corning reaction plate, followed by incubation at room temperature for 30 minutes. An assay buffer containing 50 mM Tris pH 7.5, 10 mM MgCl2, 0.1 mM Na3VO4, 1 mM DTT, 0.01% CHAPS and 100 μg/ml BSA was used. The test substance solution was made by dissolving the test substance in DMSO at each concentration. The final concentration of DMSO was 1%. The reaction was terminated by adding 100 μl of a 120 mM phosphoric acid solution as a reaction terminator. Then, the total reaction solution was transferred to MultiScreen (Millipore) and washed with 200 μl of 100 mM phosphoric acid four times.
After drying, 20 μl of MicroScint-O (PerkinElmer) was added and the radioactivity was measured by TopCount (PerkinElmer). The ratio of the radioactivity when the test substance was added to the radioactivity when the test substance was not added was determined. The IC50 value was calculated from the inhibition rate at each concentration and used as an index of inhibitory activity.

Abl = target: T2, Abl (Homo sapiens, UniProt P00519); test: Abl inhibition test; assay type: biochemical; conditions: Abltide substrate, ATP 6 μM, [γ-33P]ATP, 40 minutes room temperature; read-out: Abl inhibitory activity IC50
T2 construct: purchased Wako Pure Chemical Industries
T2 sequence (P00519 whole entry, species assumed): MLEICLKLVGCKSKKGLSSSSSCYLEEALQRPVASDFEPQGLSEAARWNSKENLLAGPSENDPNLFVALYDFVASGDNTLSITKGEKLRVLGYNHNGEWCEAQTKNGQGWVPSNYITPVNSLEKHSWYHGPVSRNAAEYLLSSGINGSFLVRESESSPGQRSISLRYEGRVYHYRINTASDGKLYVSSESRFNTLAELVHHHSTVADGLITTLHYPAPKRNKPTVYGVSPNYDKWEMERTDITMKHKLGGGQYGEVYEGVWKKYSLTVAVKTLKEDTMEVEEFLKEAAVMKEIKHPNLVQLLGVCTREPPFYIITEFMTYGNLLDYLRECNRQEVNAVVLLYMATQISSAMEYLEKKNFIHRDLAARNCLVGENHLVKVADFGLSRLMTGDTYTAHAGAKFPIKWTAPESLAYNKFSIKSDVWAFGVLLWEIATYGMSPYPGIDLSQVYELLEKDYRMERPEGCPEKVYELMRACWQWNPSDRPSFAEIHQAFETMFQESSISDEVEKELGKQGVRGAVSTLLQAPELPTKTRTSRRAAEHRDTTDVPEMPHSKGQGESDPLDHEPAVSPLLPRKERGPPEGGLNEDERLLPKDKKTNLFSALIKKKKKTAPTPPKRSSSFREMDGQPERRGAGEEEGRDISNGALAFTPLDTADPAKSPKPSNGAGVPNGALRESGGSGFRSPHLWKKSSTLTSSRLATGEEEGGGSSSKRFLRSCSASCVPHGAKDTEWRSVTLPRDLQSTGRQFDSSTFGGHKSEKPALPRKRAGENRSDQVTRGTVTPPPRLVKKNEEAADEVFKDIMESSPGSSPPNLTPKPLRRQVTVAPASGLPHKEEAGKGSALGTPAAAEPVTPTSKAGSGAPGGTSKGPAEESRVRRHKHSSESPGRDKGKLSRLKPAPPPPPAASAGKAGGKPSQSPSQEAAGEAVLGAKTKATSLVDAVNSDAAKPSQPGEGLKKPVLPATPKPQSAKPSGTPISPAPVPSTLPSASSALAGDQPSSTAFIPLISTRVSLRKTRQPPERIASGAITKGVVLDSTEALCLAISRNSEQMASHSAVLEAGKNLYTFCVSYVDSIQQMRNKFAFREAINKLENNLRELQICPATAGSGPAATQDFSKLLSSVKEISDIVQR
Protocol: 5 ng/5 μl/well of an Abl (Wako Pure Chemical Industries) solution, 30 μl of an Abltide substrate peptide solution (Wako Pure Chemical Industries; final concentration 5 μM) and 5 μl of a test substance solution were added to a 96-well plate (Corning), followed by incubation at room temperature for 15 minutes. Then, 10 μl of an ATP mixture (ATP: Oriental Yeast, final concentration 6 μM, [γ-33P]ATP: GE Healthcare Biosciences, 0.06 μCi/well, MgAcetate: Cosmo Bio, final concentration 10 mM) was added, followed by incubation at room temperature for 40 minutes. The Abl solution was prepared using a kinase buffer (20 mM MOPS pH 7.0, 1 mM EDTA, 0.1% β-mercaptoethanol, 0.01% Brij-35, 5% glycerol, 1 mg/ml BSA). The substrate peptide solution and the ATP mixture were prepared using 8 mM MOPS pH 7.0 and 0.2 mM
EDTA. The test substance solution was made by dissolving the test substance in DMSO at each concentration. The final concentration of DMSO was 1%. The reaction was terminated by adding 100 μl of a 100 mM phosphoric acid solution as a reaction terminator. Then, the total reaction solution was transferred to a 96-well MultiScreen plate (Millipore) and washed with 200 μl of 100 mM phosphoric acid three times. After drying, 20 μl of MicroScint-O (PerkinElmer) was added and the radioactivity was measured by TopCount (PerkinElmer). After subtracting the radioactivity in the well to which the Abltide substrate peptide was not added from each radioactivity, the ratio of the radioactivity when the test substance was added to the radioactivity when the test substance was not added was determined. The IC50 value was calculated from the inhibition rate at each concentration and used as an index of inhibitory activity.

| IC50 (Syk) | IC50 (Abl) | Structure (SMILES) | IC50 [1] |
| --- | --- | --- | --- |
|  | ≤ 50 nM | Cc1cc(Nc2nc(NC3CC3)c3c(S(C)(=O)=O)n[nH]c3n2)ccc1N1CCOCC1 [Compound 38] |  |
|  | ≤ 10 nM | CS(=O)(=O)c1n[nH]c2nc(Nc3ccc(N4CCOCC4)cc3)nc(N[C@H]3CC[C@@H](N)CC3)c12 [Compound 117, N^4-(cis-4-Aminocyclohexyl)-3-(methylsulfonyl)-N^6-(4-morpholin-4-ylphenyl)-1H-pyrazolo[3,4-d]pyrimidine-4,6-diamine] |  |
| ≤ 200 nM | ≤ 10 nM | CS(=O)(=O)c1n[nH]c2nc(Nc3ccc(N4CCNCC4)cc3)nc(NC3CC3)c12 [Compound 74] | ≤ 100 nM |
|  | ≤ 50 nM | CSc1n[nH]c2nc(Nc3ccc(N4CCOCC4)cc3)nc(Nc3ccc4nc[nH]c4c3)c12 [Compound 192] |  |
|  | ≤ 10 nM | CS(=O)(=O)c1n[nH]c2nc(Nc3ccc(N4CCC(CO)CC4)cc3)nc(NC3CC3)c12 [Compound 126] |  |
|  | ≤ 10 nM | CS(=O)(=O)c1n[nH]c2nc(Nc3ccc(N4CCCC(C(N)=O)C4)cc3)nc(NC3CC3)c12 (stereo not shown) [Compound 132] |  |
| ≤ 200 nM | ≤ 50 nM | CSc1n[nH]c2nc(Nc3ccc(N4CCOCC4)cc3)nc(NCCCCN)c12 [Compound 102] | ≤ 100 nM |
| ≤ 200 nM | ≤ 10 nM | CS(=O)(=O)c1n[nH]c2nc(Nc3ccc(N4CCN(S(C)(=O)=O)CC4)cc3)nc(NC3CC3)c12 [Compound 146] |  |
|  | ≤ 50 nM | CNCCCCNc1nc(Nc2ccc(N3CCOCC3)cc2)nc2[nH]nc(SC)c12 [Compound 116] |  |
|  | ≤ 50 nM | CSc1n[nH]c2nc(Nc3ccc(N4CCOCC4)cc3)nc(NCCCCCN)c12 [Compound 110] |  |
| ≤ 200 nM | ≤ 50 nM | CCSc1n[nH]c2nc(Nc3ccc(N4CCOCC4)cc3)nc(NCCCCN)c12 [Compound 114] |  |
|  | ≤ 50 nM | CSc1n[nH]c2nc(Nc3ccc(N4CCOCC4)cc3)nc(Nc3ccc4[nH]c(O)nc4c3)c12 [Compound 208] |  |
|  | ≤ 50 nM | CS(=O)(=O)c1n[nH]c2nc(Nc3ccc(N4CCOCC4)cc3)nc(NCCCC(N)=O)c12 [Compound 60] |  |
|  | ≤ 50 nM | CCSc1n[nH]c2nc(Nc3ccc(N4CCOCC4)cc3)nc(NC3CC3)c12 [Compound 108] |  |
|  | ≤ 10 nM | CC(C)Sc1n[nH]c2nc(Nc3ccc(N4CCOCC4)cc3)nc(N[C@H]3CC[C@@H](N)CC3)c12 [Compound 119] |  |
| ≤ 200 nM | ≤ 10 nM | CN1CCN(c2ccc(Nc3nc(NC4CC4)c4c(S(C)(=O)=O)n[nH]c4n3)cc2)CC1 [Compound 131, N^4-Cyclopropyl-N^6-[4-(4-methylpiperazin-1-yl)phenyl]-3-(methylsulfonyl)-1H-pyrazolo[3,4-d]pyrimidine-4,6-diamine] | ≤ 100 nM |
|  | ≤ 50 nM | CC1CN(C(=O)c2ccc(Nc3nc(NC4CC4)c4c(S(C)(=O)=O)n[nH]c4n3)cc2)CC(C)O1 (stereo not shown) [Compound 240] |  |
|  | ≤ 50 nM | CSc1n[nH]c2nc(Nc3ccc(N4CCOCC4)cc3)nc(Nc3ccc4cn[nH]c4c3)c12 [Compound 206] |  |
|  | ≤ 50 nM | CS(=O)(=O)c1n[nH]c2nc(Nc3ccc(N4CCOCC4)cc3)nc(Nc3ccccc3C(N)=O)c12 [Compound 188] |  |
| ≤ 200 nM | ≤ 10 nM | CCSc1n[nH]c2nc(Nc3ccc(N4CCOCC4)cc3)nc(N[C@H]3CC[C@H](N)CC3)c12 [Compound 115] |  |
| ≤ 200 nM | ≤ 50 nM | CN(C)C(=O)C1CCN(c2ccc(Nc3nc(NC4CC4)c4c(S(C)(=O)=O)n[nH]c4n3)cc2)CC1 [Compound 128] | ≤ 100 nM |
|  | ≤ 50 nM | CS(=O)(=O)c1n[nH]c2nc(Nc3ccc(-c4ccc(C(=O)O)cc4)cc3)nc(NC3CC3)c12 [Compound 227] |  |

More lines, now with the values behind:

| Structure (SMILES) | IC50 (Syk) | IC50 (Abl) | IC50 [1] |
| --- | --- | --- | --- |
| CS(=O)(=O)c1n[nH]c2nc(Nc3ccc(N4CCC(=O)CC4)cc3)nc(NC3CC3)c12 [Compound 88] |  |  | ≤ 100 nM |
| CS(=O)(=O)c1n[nH]c2nc(Nc3ccc(N4CCOCC4)cc3)nc(NCCCCN)c12 [Compound 107] | ≤ 200 nM | ≤ 50 nM | ≤ 100 nM |
| N[C@H]1CC[C@@H](Oc2nc(Nc3ccc(N4CCOCC4)cc3)nc3[nH]ncc23)CC1 [Compound 217, cis-4-(4-Aminocyclohexyloxy)-N-(4-morpholinophenyl)-1H-pyrazolo[3,4-d]pyrimidin-6-amine] |  | ≤ 10 nM |  |
| CS(=O)(=O)c1n[nH]c2nc(Nc3ccc(N4CCOCC4)cc3)nc(NC3CCCC3)c12 [Compound 103] |  | ≤ 50 nM |  |
| CSc1n[nH]c2nc(Nc3ccc(N4CCOCC4)cc3)nc(NC3CC3)c12 [Compound 13, N^4-Cyclopropyl-3-(methylsulfanyl)-N^6-(4-morpholin-4-ylphenyl)-1H-pyrazolo[3,4-d]pyrimidine-4,6-diamine] |  |  | ≤ 100 nM |
| CC(C)(C)Nc1nc(Nc2ccc(N3CCOCC3)cc2)nc2[nH]nc(S(C)(=O)=O)c12 [Compound 55] |  | ≤ 10 nM |  |
| CSc1n[nH]c2nc(Nc3ccc(N4CCOCC4)cc3)nc(NCCc3c[nH]cn3)c12 [Compound 200] |  | ≤ 10 nM |  |
| N[C@H]1CC[C@@H](Nc2nc(Nc3ccc(N4CCOCC4)cc3)nc3[nH]ncc23)CC1 [Compound 216, N^4-(cis-4-Aminocyclohexyl)-N^6-(4-morpholinophenyl)-1H-pyrazolo[3,4-d]pyrimidine-4,6-diamine] |  | ≤ 10 nM |  |
| CS(=O)(=O)c1n[nH]c2nc(Nc3ccc(N4CCCC(O)C4)cc3)nc(NC3CC3)c12 (stereo not shown) [Compound 78] |  | ≤ 10 nM |  |
| C[S+]([O-])c1n[nH]c2nc(Nc3ccc(N4CCOCC4)cc3)nc(NC3CC3)c12 (stereo not shown) [Compound 4, N^4-Cyclopropyl-3-(methylsulfinyl)-N^6-(4-morpholin-4-ylphenyl)-1H-pyrazolo[3,4-d]pyrimidine-4,6-diamine] |  |  | ≤ 100 nM |
| CCN1CCN(c2ccc(Nc3nc(NC4CC4)c4c(S(C)(=O)=O)n[nH]c4n3)cc2)CC1 [Compound 135] | ≤ 200 nM |  | ≤ 100 nM |
| CNC(=O)COc1cccc(Nc2nc(NC3CC3)c3c(S(C)(=O)=O)n[nH]c3n2)c1 [Compound 150] |  | ≤ 50 nM |  |
| CS(=O)(=O)c1n[nH]c2nc(Nc3ccc(N4CCCC(CO)C4)cc3)nc(NC3CC3)c12 (stereo not shown) [Compound 130] | ≤ 200 nM | ≤ 10 nM | ≤ 100 nM |
| CC(C)N1CCN(c2ccc(Nc3nc(NC4CC4)c4c(S(C)(=O)=O)n[nH]c4n3)cc2)CC1 [Compound 138] | ≤ 200 nM |  | ≤ 100 nM |
| CS(=O)(=O)c1n[nH]c2nc(Nc3ccc4[nH]cnc4c3)nc(NC3CC3)c12 [Compound 21] |  | ≤ 50 nM |  |
| CS(=O)(=O)c1n[nH]c2nc(Nc3ccc(N4CCS(=O)(=O)CC4)cc3)nc(NC3CC3)c12 [Compound 134] | ≤ 200 nM | ≤ 10 nM | ≤ 100 nM |
| CNS(=O)(=O)c1ccc(Nc2nc(NC3CC3)c3c(S(C)(=O)=O)n[nH]c3n2)cc1 [Compound 152] |  | ≤ 10 nM |  |
| CSc1n[nH]c2nc(Nc3ccc(N4CCOCC4)cc3)nc(N[C@H]3CC[C@@H](N)CC3)c12 [Compound 112] | 20 nM | ≤ 10 nM | 19 nM |
